In US7541353B2, “Compounds for the treatment of hepatitis C” (Bristol-Myers Squibb Company, priority 2007, dated 2009):
Where two headings read alike, the source gives them in different places.

Experiments:
HCV replicon cells = experiment: HCV replicon FRET assay; type: cell-based
Description: FRET Assay Preparation. The HCV FRET screening assay was performed in 96-well cell culture plates. The FRET peptide (Anaspec, Inc.) (Taliani et al., Anal. Biochem. 1996, 240, 60-67) contains a fluorescence donor, EDANS, near one end of the peptide and an acceptor, DABCYL, near the other end. The fluorescence of the peptide is quenched by […] resonance energy transfer (RET) between the donor and the acceptor, but as the NS3 protease cleaves the peptide the products are released from RET quenching and the fluorescence of the donor becomes apparent. The assay reagent was made as follows: 5× cell Luciferase cell culture lysis reagent from Promega (#E153A) diluted to 1× with dH2O, NaCl added to 150 mM final, the FRET peptide diluted to 20 μM final from a 2 mM stock.
To prepare plates, HCV replicon cells, with or without a Renilla luciferase reporter gene, were trypsinized and plated in a 96-well plate with titrated test compounds added in columns 3 through 12; columns 1 and 2 contained a control compound (HCV control inhibitor), and the bottom row contained cells with DMSO only. The plates were then placed in a CO2 incubator at 37° C.
Assays. Subsequent to addition of the test compounds described above (FRET Assay Preparation), at various times the plate was removed and Alamar blue solution (Trek Diagnostics, #00-100) was added to measure cellular toxicity. After reading in a Cytoflour 4000 instrument (PE Biosystems), plates were rinsed with PBS and then used for FRET assay by the addition of 30 ul of the FRET peptide assay reagent described above (FRET Assay Preparation) per well. The plate was then placed into the Cytoflour 4000 instrument which had been set to 340 excite/490 emission, automatic mode for up to 20 cycles and the plate read in a kinetic mode. Typically, the signal to noise using an endpoint analysis after the reads was at least three-fold. Alternatively, after Alamar blue reading, plates were rinsed with PBS, then used for luciferase assay using the Promega Dual-Glo Luciferase Assay System or the Promega EnduRen Live Cell Substrate assay.
Compound analysis was performed by quantification of the relative HCV replicon inhibition and the relative cytotoxicity values. To calculate cytoxicity values, the average Alamar Blue fluorescence signals from the control wells were set as 100% non-toxic. The individual signals in each of the compound test wells were then divided by the average control signal and multiplied by 100% to determine […]. To calculate the HCV replicon inhibition values, an average background value was obtained from the two wells containing the highest amount of HCV control inhibitor at the end of the assay period. These numbers were similar to those obtained from naïve Huh-7 cells. The background numbers were then subtracted from the average signal obtained from the control wells and this number was used as 100% activity. The individual signals in each of the compound test wells were then divided by the averaged control values after background subtraction and multiplied by 100% to determine percent activity. EC50 values were calculated as the concentration which caused a 50% reduction in FRET or luciferase activity. The two numbers generated for the compound plate, percent cytoxicity and percent activity, were used to determine compounds of interest for further analysis.

HCV NS5B = molecular target: T1, HCV NS5B (Hepatitis C virus genotype 1b, UniProt Q9WMX2); experiment: Modified HCV NS5B RdRp enzyme assay (preincubation protocol); type: biochemical
T1 construct: The cDNA encoding the NS5B protein of HCV, genotype 1b; made in house; host or cells: E. coli BL21(DE3)
Description: HCV NS5B RdRp cloning, expression, and purification. The cDNA encoding the NS5B protein of HCV, genotype 1b, was cloned into the pET21a expression vector. The protein was expressed with an 18 amino acid C-terminal truncation to enhance the solubility. The E. coli competent cell line BL21(DE3) was used for expression of the protein. Cultures were grown at 37° C. for ˜4 hours until the cultures reached an optical density of 2.0 at 600 nm. The cultures were cooled to 20° C. and induced with 1 mM IPTG. Fresh ampicillin was added to a final concentration of 50 μg/ml and the cells were grown overnight at 20° C.
Cell pellets (3L) were lysed for purification to yield 15-24 mgs of purified NS5B. The lysis buffer consisted of 20 mM Tris-HCl, pH 7.4, 500 mM NaCl, 0.5% triton X-100, 1 mM DTT, 1 mM EDTA, 20% glycerol, 0.5 mg/ml lysozyme, 10 mM MgCl2, 15 ug/ml deoxyribonuclease I, and Complete™ protease inhibitor tablets (Roche). After addition of the lysis buffer, frozen cell pellets were resuspended using a tissue homogenizer. To reduce the viscosity of the sample, aliquots of the lysate were sonicated on ice using a microtip attached to a Branson sonicator. The sonicated lysate was centrifuged at 100,000×g for 1 hr at 4° C. and filtered through a 0.2 μm filter unit (Corning).
The protein was purified using two sequential chromatography steps: Heparin sepharose CL-6B and polyU sepharose 4B (Pharmacia). The chromatography buffers were identical to the lysis buffer but contained no lysozyme, deoxyribonuclease I, MgCl2 or protease inhibitor and the NaCl concentration of the buffer was adjusted according to the requirements for charging the protein onto the column. Each column was eluted with a NaCl gradient which varied in length from 5-50 column volumes depending on the column type. After the final chromatography step, the resulting purity of the enzyme is >90% based on SDS-PAGE analysis. The enzyme was aliquoted and stored at −80° C.
Standard HCV NS5B RdRp enzyme assay. HCV RdRp genotype 1b assays were run in a final volume of 60 μl in 96 well plates (Corning 3600). The assay buffer is composed of 20 mM Hepes, pH 7.5, 2.5 mM KCl, 2.5 mM MgCl2, 1 mM DTT, 1.6 U RNAse inhibitor (Promega N2515), 0.01 mg/ml BSA (Sigma B6917), and 2% glycerol. All compounds were serially diluted (3-fold) in DMSO and diluted further in water such that the final concentration of DMSO in the assay was 2%. HCV RdRp genotype 1b enzyme was used at a final concentration of 28 nM. A polyA template was used at 6 nM, and a biotinylated oligo-dT12 primer was used at 180 nM final concentration. Template was obtained commercially (Amersham 27-4110). Biotinylated primer was prepared by Sigma Genosys. 3H-UTP was used at 0.6 μCi (0.29 μM total UTP). Reactions were initiated by the addition of enzyme, incubated at 30° C. for 60 min, and stopped by adding 25 μl of 50 mM EDTA containing SPA beads (4 μg/μl, Amersham RPNQ 0007). Plates were read on a Packard Top Count NXT after >1 hr incubation at room temperature.
Modified HCV NS5B RdRp enzyme assay. A modified enzyme assay was performed essentially as described for the standard enzyme assay except for the following: The biotinylated oligo dT12 primer was precaptured on streptavidin-coated SPA beads by mixing primer and beads in assay buffer and incubating at room temperature for one hour. Unbound primer was removed after centrifugation. The primer-bound beads were resuspended in 20 mM Hepes buffer, pH 7.5 and used in the assay at final concentrations of 20 nM primer and 0.67 μg/μl beads. Order of addition in the assay: enzyme (1.75 nM) was added to diluted compound followed by the addition of a mixture of template (0.36 nM), 3H-UTP (0.6 μCi, 0.29 μM), and primer-bound beads, to initiate the reaction; concentrations given are final. Reactions were allowed to proceed for 4 hours at 30° C.
IC50 values for compounds were determined using seven different [I]. […]

T1 sequence (Q9WMX2 2420-2992): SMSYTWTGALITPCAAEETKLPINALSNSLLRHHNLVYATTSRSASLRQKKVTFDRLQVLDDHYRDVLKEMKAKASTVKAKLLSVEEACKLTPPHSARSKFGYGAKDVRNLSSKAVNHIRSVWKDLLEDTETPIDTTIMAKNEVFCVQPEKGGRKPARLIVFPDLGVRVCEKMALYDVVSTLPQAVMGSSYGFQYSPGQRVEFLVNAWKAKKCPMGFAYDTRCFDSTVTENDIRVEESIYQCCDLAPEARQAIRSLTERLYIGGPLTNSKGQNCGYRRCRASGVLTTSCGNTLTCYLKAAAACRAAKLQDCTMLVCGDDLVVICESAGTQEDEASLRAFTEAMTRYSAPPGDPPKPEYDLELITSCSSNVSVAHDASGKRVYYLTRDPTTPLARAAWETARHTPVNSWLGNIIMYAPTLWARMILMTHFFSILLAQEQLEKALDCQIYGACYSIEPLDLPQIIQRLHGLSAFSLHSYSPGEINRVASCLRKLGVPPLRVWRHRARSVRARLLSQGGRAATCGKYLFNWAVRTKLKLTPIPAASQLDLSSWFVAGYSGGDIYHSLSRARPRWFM

Structure (SMILES)	EC50 (HCV replicon cells; Hepatitis C virus) [µM]	IC50 (HCV NS5B) [µM]	IC50 (HCV NS5B; preincubation protocol, read-out: IC50) [µM]	EC50 (HCV replicon cells; FRET assay) [µM]	IC50 (HCV NS5B; preincubation protocol) [µM]
COc1ccc2c(c1)C1CC1(C(=O)N1C3CCC1CC(O)(C(C)(C)C)C3)Cn1c-2c(C2CCCCC2)c2ccc(C(=O)NS(=O)(=O)N(C)C)cc21 (centres unmarked)	0.00458 to 0.5	0.00458 to 0.5			
COc1ccc2c(c1)C1CC1(C(=O)N1CC3CCC(C1)O3)Cn1c-2c(C2CCCCC2)c2ccc(C(=O)NS(=O)(=O)N(C)C)cc21 (centres unmarked)	0.00458 to 0.5		0.00458 to 0.5		
COc1ccc2c(c1)C1CC1(C(=O)N1C3CCCC1COC3)Cn1c-2c(C2CCCCC2)c2ccc(C(=O)NS(=O)(=O)CCC(F)(F)F)cc21 (centres unmarked)	0.00458 to 0.5	0.00458 to 0.5			
COc1ccc2c(c1)[C@@H]1C[C@]1(C(=O)N1C3CCC(O)C1CCC3O)Cn1c-2c(C2CCCCC2)c2ccc(C(=O)NS(=O)(=O)N(C)C)cc21 (some centres unmarked)	0.00458 to 0.5	0.00458 to 0.5			
COc1ccc2c(c1)C1CC1(C(=O)N1C3CCC1CC(NC(C)C)C3)Cn1c-2c(C2CCCCC2)c2ccc(C(=O)NS(=O)(=O)N(C)C)cc21 (centres unmarked)	0.00458 to 0.5	0.00458 to 0.5			
COc1ccc2c(c1)C1CC1(C(=O)N1C3CCC1CC(C)(O)C3)Cn1c-2c(C2CCCCC2)c2ccc(C(=O)NS(=O)(=O)N(C)C)cc21 (centres unmarked)	0.00458 to 0.5	0.00458 to 0.5			
COc1ccc2c(c1)C1CC1(C(=O)N1C3CCCC1COC3)Cn1c-2c(C2CCCCC2)c2ccc(C(=O)NS(=O)(=O)C3CCCCC3)cc21 (centres unmarked) [drawing 54]				0.00458 to 0.5	0.00458 to 0.5
COc1ccc2c(c1)C1CC1(C(=O)N1C3CCC1CC(NCc1ccccc1)C3)Cn1c-2c(C2CCCCC2)c2ccc(C(=O)NS(=O)(=O)C(C)C)cc21 (centres unmarked)	0.00458 to 0.5	0.00458 to 0.5			
COc1ccc2c(c1)C1CC1(C(=O)N1C3CCC1CC(N(CCN(C)C)Cc1ccccc1)C3)Cn1c-2c(C2CCCCC2)c2ccc(C(=O)NS(=O)(=O)C3CC3)cc21 (centres unmarked)	0.00458 to 0.5	0.00458 to 0.5			
COc1ccc2c(c1)C1CC1(C(=O)N1C3CCC1CC(O)C3)Cn1c-2c(C2CCCCC2)c2ccc(C(=O)NS(=O)(=O)N(C)C)cc21 (centres unmarked)	0.00458 to 0.5	0.00458 to 0.5			
COc1ccc2c(c1)C1CC1(C(=O)N1C3CCC1CC(N(C)Cc1ccccc1)C3)Cn1c-2c(C2CCCCC2)c2ccc(C(=O)NS(=O)(=O)C(C)C)cc21 (centres unmarked) [drawing 56]				0.00458 to 0.5	0.00458 to 0.5
COc1ccc2c(c1)C1CC1(C(=O)N1C3CCC1CC(=O)C3)Cn1c-2c(C2CCCCC2)c2ccc(C(=O)NS(C)(=O)=O)cc21 (centres unmarked)	0.00458 to 0.5	0.00458 to 0.5			
COc1ccc2c(c1)C1CC1(C(=O)N1C3CCCC1COC3)Cn1c-2c(C2CCCCC2)c2ccc(C(=O)NS(=O)(=O)C3CCCCC3)cc21 (centres unmarked) [drawing 68]	0.00458 to 0.5	0.00458 to 0.5			
COc1ccc2c(c1)C1CC1(C(=O)N1C3CCC1CC(N(C)Cc1ccccc1)C3)Cn1c-2c(C2CCCCC2)c2ccc(C(=O)NS(=O)(=O)N(C)C)cc21 (centres unmarked)	0.00458 to 0.5	0.00458 to 0.5			
COc1ccc2c(c1)C1CC1(C(=O)N1C3COCC1COC3)Cn1c-2c(C2CCCCC2)c2ccc(C(=O)NS(=O)(=O)C3CCCCC3)cc21 (centres unmarked)	0.00458 to 0.5	0.00458 to 0.5			
COc1ccc2c(c1)C1CC1(C(=O)N1C3CCC1CC(=O)C3)Cn1c-2c(C2CCCCC2)c2ccc(C(=O)NS(=O)(=O)N(C)C)cc21 (centres unmarked)	0.00458 to 0.5	0.00458 to 0.5			
CCC(C)S(=O)(=O)NC(=O)c1ccc2c(C3CCCCC3)c3n(c2c1)CC1(C(=O)N2C4CCC2CC(NC)C4)CC1c1cc(OC)ccc1-3 (centres unmarked)	0.00458 to 0.5	0.00458 to 0.5			
CNC1CC2CCC(C1)N2C(=O)C12CC1c1cc(OC)ccc1-c1c(C3CCCCC3)c3ccc(C(=O)NS(=O)(=O)N(C)C)cc3n1C2 (centres unmarked) [drawing 29]				0.00458 to 0.5	0.00458 to 0.5
COc1ccc2c(c1)C1CC1(C(=O)N1C3CCC1CC(=O)C3)Cn1c-2c(C2CCCCC2)c2ccc(C(=O)NS(=O)(=O)C3CC3)cc21 (centres unmarked)		0.00458 to 0.5			
CCC(C)S(=O)(=O)NC(=O)c1ccc2c(C3CCCCC3)c3n(c2c1)CC1(C(=O)N2C4CCC2CC(N(C)Cc2ccccc2)C4)CC1c1cc(OC)ccc1-3 (centres unmarked)	0.00458 to 0.5	0.00458 to 0.5			
COc1ccc2c(c1)C1CC1(C(=O)N1C3CCC[C@@H]1COC3)Cn1c-2c(C2CCCCC2)c2ccc(C(=O)NS(=O)(=O)C(C)C)cc21 (some centres unmarked)	0.00458 to 0.5	0.00458 to 0.5			
COc1ccc2c(c1)C1CC1(C(=O)N1C3CCC1CC(C)(O)C3)Cn1c-2c(C2CCCCC2)c2ccc(C(=O)NS(=O)(=O)C(C)C)cc21 (centres unmarked)	0.00458 to 0.5	0.00458 to 0.5			
COc1ccc2c(c1)C1CC1(C(=O)N1C3COCC1COC3)Cn1c-2c(C2CCCCC2)c2ccc(C(=O)NS(=O)(=O)CCC(F)(F)F)cc21 (centres unmarked)	0.00458 to 0.5	0.00458 to 0.5			
COc1ccc2c(c1)C1CC1(C(=O)N1C3CCC1CC(N(CCN(C)C)Cc1ccccc1)C3)Cn1c-2c(C2CCCCC2)c2ccc(C(=O)NS(C)(=O)=O)cc21 (centres unmarked)	0.00458 to 0.5	0.00458 to 0.5			
COc1ccc2c(c1)[C@@H]1C[C@]1(C(=O)N1C3CCC1CC(C)(O)C3)Cn1c-2c(C2CCCCC2)c2ccc(C(=O)NS(=O)(=O)N(C)C)cc21 (some centres unmarked) [drawing 47]				0.00458 to 0.5	0.00458 to 0.5
COc1ccc2c(c1)C1CC1(C(=O)N1C3CCC1CC(=O)C3)Cn1c-2c(C2CCCCC2)c2ccc(C(=O)NS(=O)(=O)C(C)C)cc21 (centres unmarked)	0.00458 to 0.5	0.00458 to 0.5			
COc1ccc2c(c1)C1CC1(C(=O)N1C3CCC1CC(NCc1ccccc1)C3)Cn1c-2c(C2CCCCC2)c2ccc(C(=O)NS(=O)(=O)N3CCC3)cc21 (centres unmarked)	0.00458 to 0.5	0.00458 to 0.5			
